{"source": "ChEMBL document CHEMBL5634117", "about": "(Eur J Med Chem, 2023)", "key": {"K562 [1]": {"tested_on": "K562", "test": "Induction of cell cycle arrest in human K562 cells assessed as accumulation of cells at G0/G1 phase at 1.28 uM measured after 24 hrs by PI staining based flow cytometry analysis (reference value: 46.72%)", "type": "functional"}, "K562 [2]": {"tested_on": "K562", "test": "Induction of apoptosis in human K562 cells assessed as early apoptotic cells at 0.64 uM incubated for 24 hrs by annexinV and propidium iodide staining based flow cytometry analysis (reference value: 1.17%)", "type": "functional"}, "K562 [3]": {"tested_on": "K562", "test": "Induction of cell cycle arrest in human K562 cells assessed as accumulation of cells at G2/M phase at 1.28 uM measured after 24 hrs by PI staining based flow cytometry analysis (reference value: 25.62%)", "type": "functional"}, "K562 [4]": {"tested_on": "K562", "test": "Induction of cell cycle arrest in human K562 cells assessed as accumulation of cells at S phase at 0.64 uM measured after 24 hrs by PI staining based flow cytometry analysis (reference value: 24.75%)", "type": "functional"}, "K562 [5]": {"tested_on": "K562", "test": "Induction of cell cycle arrest in human K562 cells assessed as accumulation of cells at S phase at 1.28 uM measured after 24 hrs by PI staining based flow cytometry analysis (reference value: 24.75%)", "type": "functional"}, "K562 [6]": {"tested_on": "K562", "test": "Induction of apoptosis in human K562 cells assessed as late apoptotic cells at 1.28 uM incubated for 24 hrs by annexinV and propidium iodide staining based flow cytometry analysis (reference value: 0.82%)", "type": "functional"}, "K562 [7]": {"tested_on": "K562", "test": "Induction of apoptosis in human K562 cells assessed as early apoptotic cells at 1.28 uM incubated for 24 hrs by annexinV and propidium iodide staining based flow cytometry analysis (reference value: 1.17%)", "type": "functional"}, "[8]": {"test": "Cytotoxicity against African green monkey Vero cells assessed as decrease in number of viable cells at 100 uM measured after 48 hrs by SRB assay relative to control", "type": "toxicity, cell-based", "conditions": "chlorocebus sabaeus"}, "K562 [9]": {"tested_on": "K562", "test": "Induction of cell cycle arrest in human K562 cells assessed as accumulation of cells at G0/G1 phase at 2.56 uM measured after 24 hrs by PI staining based flow cytometry analysis (reference value: 46.72%)", "type": "functional"}, "K562 [10]": {"tested_on": "K562", "test": "Induction of cell cycle arrest in human K562 cells assessed as accumulation of cells at G0/G1 phase at 0.64 uM measured after 24 hrs by PI staining based flow cytometry analysis (reference value: 46.72%)", "type": "functional"}, "[11]": {"test": "Cytotoxicity against African green monkey Vero cells assessed as decrease in population of viable cells at 0 to 10 uM measured after 48 hrs by SRB assay relative to control", "type": "toxicity, cell-based", "conditions": "chlorocebus sabaeus, dose 0-10 µM"}, "K562 [12]": {"tested_on": "K562", "test": "Induction of apoptosis in human K562 cells assessed as late apoptotic cells at 2.56 uM incubated for 24 hrs by annexinV and propidium iodide staining based flow cytometry analysis (reference value: 0.82%)", "type": "functional"}, "K562 [13]": {"tested_on": "K562", "test": "Induction of cell cycle arrest in human K562 cells assessed as accumulation of cells at S phase at 5 uM measured after 24 hrs by PI staining based flow cytometry analysis (reference value: 20.42%)", "type": "functional"}, "K562 [14]": {"tested_on": "K562", "test": "Induction of apoptosis in human K562 cells assessed as late apoptotic cells at 2.56 uM incubated for 24 hrs by annexinV and propidium iodide staining based flow cytometry analysis (reference value: 1.34%)", "type": "functional"}, "K562 [15]": {"tested_on": "K562", "test": "Induction of cell cycle arrest in human K562 cells assessed as accumulation of cells at SubG1 phase at 2.5 uM measured after 24 hrs by PI staining based flow cytometry analysis (reference value: 3.43%)", "type": "functional"}, "K562 [16]": {"tested_on": "K562", "test": "Induction of cell cycle arrest in human K562 cells assessed as accumulation of cells at G0/G1 phase at 2.5 uM measured after 24 hrs by PI staining based flow cytometry analysis (reference value: 46.67%)", "type": "functional"}, "K562 [17]": {"tested_on": "K562", "test": "Induction of apoptosis in human K562 cells assessed as early apoptotic cells at 2.5 uM incubated for 24 hrs by annexinV and propidium iodide staining based flow cytometry analysis (reference value: 0.42%)", "type": "functional"}, "K562 [18]": {"tested_on": "K562", "test": "Induction of apoptosis in human K562 cells assessed as early apoptotic cells at 5 uM incubated for 24 hrs by annexinV and propidium iodide staining based flow cytometry analysis (reference value: 0.42%)", "type": "functional"}, "K562 [19]": {"tested_on": "K562", "test": "Induction of cell cycle arrest in human K562 cells assessed as accumulation of cells at G0/G1 phase at 1.28 uM measured after 24 hrs by PI staining based flow cytometry analysis (reference value: 46.71%)", "type": "functional"}, "K562 [20]": {"tested_on": "K562", "test": "Induction of apoptosis in human K562 cells assessed as early apoptotic cells at 1.28 uM incubated for 24 hrs by annexinV and propidium iodide staining based flow cytometry analysis (reference value: 0.42%)", "type": "functional"}, "K562 [21]": {"tested_on": "K562", "test": "Induction of cell cycle arrest in human K562 cells assessed as accumulation of cells at G2/M phase at 1.25 uM measured after 24 hrs by PI staining based flow cytometry analysis (reference value: 29.44%)", "type": "functional"}, "K562 [22]": {"tested_on": "K562", "test": "Induction of cell cycle arrest in human K562 cells assessed as accumulation of cells at S phase at 1.25 uM measured after 24 hrs by PI staining based flow cytometry analysis (reference value: 20.42%)", "type": "functional"}, "K562 [23]": {"tested_on": "K562", "test": "Induction of apoptosis in human K562 cells assessed as late apoptotic cells at 2.5 uM incubated for 24 hrs by annexinV and propidium iodide staining based flow cytometry analysis (reference value: 1.34%)", "type": "functional"}, "K562 [24]": {"tested_on": "K562", "test": "Induction of apoptosis in human K562 cells assessed as late apoptotic cells at 1.28 uM incubated for 24 hrs by annexinV and propidium iodide staining based flow cytometry analysis (reference value: 1.34%)", "type": "functional"}, "K562 [25]": {"tested_on": "K562", "test": "Induction of apoptosis in human K562 cells assessed as early apoptotic cells at 2.56 uM incubated for 24 hrs by annexinV and propidium iodide staining based flow cytometry analysis (reference value: 0.42%)", "type": "functional"}, "K562 [26]": {"tested_on": "K562", "test": "Induction of cell cycle arrest in human K562 cells assessed as accumulation of cells at G2/M phase at 0.64 uM measured after 24 hrs by PI staining based flow cytometry analysis (reference value: 29.09%)", "type": "functional"}, "K562 [27]": {"tested_on": "K562", "test": "Induction of cell cycle arrest in human K562 cells assessed as accumulation of cells at SubG1 phase at 0.64 uM measured after 24 hrs by PI staining based flow cytometry analysis (reference value: 2.48%)", "type": "functional"}, "K562 [28]": {"tested_on": "K562", "test": "Induction of apoptosis in human K562 cells assessed as early apoptotic cells at 0.64 uM incubated for 24 hrs by annexinV and propidium iodide staining based flow cytometry analysis (reference value: 0.42%)", "type": "functional"}, "K562 [29]": {"tested_on": "K562", "test": "Induction of cell cycle arrest in human K562 cells assessed as accumulation of cells at G0/G1 phase at 5 uM measured after 24 hrs by PI staining based flow cytometry analysis (reference value: 46.67%)", "type": "functional"}, "K562 [30]": {"tested_on": "K562", "test": "Induction of cell cycle arrest in human K562 cells assessed as accumulation of cells at SubG1 phase at 1.25 uM measured after 24 hrs by PI staining based flow cytometry analysis (reference value: 3.43%)", "type": "functional"}, "K562 [31]": {"tested_on": "K562", "test": "Induction of autophagy in human K562 cells assessed as increase in beclin-1 level at 2.5 to 5 uM measured after 24 hrs by Western blotting analysis", "type": "functional, cell-based", "conditions": "dose 2.5-5 µM"}, "K562 [32]": {"tested_on": "K562", "test": "Induction of cell cycle arrest in human K562 cells assessed as accumulation of cells at G0/G1 phase at 1.25 uM measured after 24 hrs by PI staining based flow cytometry analysis (reference value: 46.67%)", "type": "functional"}}, "note": "Activity calls are given as the source filed them. The calls are words filed in the database; no cut-off is given here.", "data": [{"smiles": "CC(C)(C)n1cc(-c2ccnc(NCCCNS(=O)(=O)c3ccc(Cl)cc3)c2)c(-c2cccc(O)c2)n1", "values": [{"measurement": "Activity", "setting": "K562 [1]", "result": 7.27, "unit": "%"}, {"measurement": "Activity", "setting": "K562 [2]", "result": 1.07, "unit": "%"}, {"measurement": "Activity", "setting": "K562 [3]", "result": 58.95, "unit": "%"}, {"measurement": "Activity", "setting": "K562 [4]", "result": 30.99, "unit": "%"}, {"measurement": "Activity", "setting": "K562 [5]", "result": 32.68, "unit": "%"}, {"measurement": "Activity", "setting": "K562 [6]", "result": 0.56, "unit": "%"}, {"measurement": "Activity", "setting": "K562 [7]", "result": 1.94, "unit": "%"}, {"measurement": "Activity", "setting": "[8]", "result": 27, "unit": "%"}, {"measurement": "Activity", "setting": "K562 [9]", "result": 0.17, "unit": "%"}, {"measurement": "Activity", "setting": "K562 [10]", "result": 25.21, "unit": "%"}, {"measurement": "Activity", "setting": "[11]", "result": 68, "unit": "%"}, {"measurement": "Activity", "setting": "K562 [12]", "result": 0.37, "unit": "%"}]}, {"smiles": "O=C1c2ccccc2-c2n[nH]c3cccc1c23", "values": [{"measurement": "Activity", "setting": "K562 [13]", "result": 20.04, "unit": "%"}, {"measurement": "Activity", "setting": "K562 [14]", "result": 3.7, "unit": "%"}, {"measurement": "Activity", "setting": "K562 [15]", "result": 4.35, "unit": "%"}, {"measurement": "Activity", "setting": "K562 [16]", "result": 30.88, "unit": "%"}, {"measurement": "Activity", "setting": "K562 [17]", "result": 1.17, "unit": "%"}, {"measurement": "Activity", "setting": "K562 [18]", "result": 1.5, "unit": "%"}, {"measurement": "Activity", "setting": "K562 [19]", "result": 28.15, "unit": "%"}, {"measurement": "Activity", "setting": "K562 [20]", "result": 0.66, "unit": "%"}, {"measurement": "Activity", "setting": "K562 [21]", "result": 41.64, "unit": "%"}, {"measurement": "Activity", "setting": "K562 [22]", "result": 19.52, "unit": "%"}, {"measurement": "Activity", "setting": "K562 [23]", "result": 3.86, "unit": "%"}, {"measurement": "Activity", "setting": "K562 [24]", "result": 1.25, "unit": "%"}, {"measurement": "Activity", "setting": "K562 [25]", "result": 1.05, "unit": "%"}, {"measurement": "Activity", "setting": "K562 [26]", "result": 48.84, "unit": "%"}, {"measurement": "Activity", "setting": "K562 [27]", "result": 4.68, "unit": "%"}, {"measurement": "Activity", "setting": "K562 [28]", "result": 1.59, "unit": "%"}, {"measurement": "Activity", "setting": "K562 [29]", "result": 28.76, "unit": "%"}, {"measurement": "Activity", "setting": "K562 [30]", "result": 4.71, "unit": "%"}, {"measurement": "Activity", "setting": "K562 [31]", "result": "Active"}, {"measurement": "Activity", "setting": "K562 [32]", "result": 34.01, "unit": "%"}]}]}
